According to patent US20260132127A1, “NOVEL SPIRO COMPOUND” (MITSUBISHI TANABE PHARMA CORPORATION, priority 2021, published 2026):

Biological target: T1, human TRH-DE (Homo sapiens, UniProt Q9UKU6)
T1 construct: expressed in transfected cells; host or cells: Expi 293 cells (transient expression), membrane fraction
T1 sequence (Q9UKU6 1-1069): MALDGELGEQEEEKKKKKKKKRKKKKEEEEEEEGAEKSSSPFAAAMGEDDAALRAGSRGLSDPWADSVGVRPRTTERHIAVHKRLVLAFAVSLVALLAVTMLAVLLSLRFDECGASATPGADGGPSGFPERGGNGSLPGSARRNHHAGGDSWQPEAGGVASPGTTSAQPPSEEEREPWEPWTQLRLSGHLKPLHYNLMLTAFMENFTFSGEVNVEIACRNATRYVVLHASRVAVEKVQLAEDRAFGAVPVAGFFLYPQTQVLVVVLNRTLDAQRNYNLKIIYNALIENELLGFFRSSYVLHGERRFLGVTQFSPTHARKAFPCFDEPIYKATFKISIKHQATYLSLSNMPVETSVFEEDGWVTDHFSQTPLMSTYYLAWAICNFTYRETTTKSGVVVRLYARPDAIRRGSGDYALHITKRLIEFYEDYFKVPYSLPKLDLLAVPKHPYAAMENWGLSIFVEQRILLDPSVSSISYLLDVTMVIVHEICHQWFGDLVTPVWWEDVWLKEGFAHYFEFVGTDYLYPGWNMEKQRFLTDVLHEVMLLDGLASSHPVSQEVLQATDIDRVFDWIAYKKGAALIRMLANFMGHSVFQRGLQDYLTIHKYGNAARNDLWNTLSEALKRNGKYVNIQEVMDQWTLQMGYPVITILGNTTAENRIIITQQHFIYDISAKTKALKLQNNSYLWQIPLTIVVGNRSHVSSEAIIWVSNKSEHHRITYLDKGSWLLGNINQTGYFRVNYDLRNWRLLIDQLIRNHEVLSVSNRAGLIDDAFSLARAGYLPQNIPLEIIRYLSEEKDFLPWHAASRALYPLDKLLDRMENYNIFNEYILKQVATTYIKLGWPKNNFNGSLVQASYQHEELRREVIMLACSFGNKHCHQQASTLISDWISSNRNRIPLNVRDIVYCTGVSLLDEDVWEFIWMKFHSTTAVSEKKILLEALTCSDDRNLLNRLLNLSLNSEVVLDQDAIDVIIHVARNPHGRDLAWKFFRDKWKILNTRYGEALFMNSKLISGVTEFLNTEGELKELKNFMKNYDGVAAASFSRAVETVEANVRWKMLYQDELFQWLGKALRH
Assay: TRH-DE inhibition test (RapidFire MS measurement of product Cyclo (His-Pro))
Format: biochemical
Details: membrane fraction of Expi 293 cells expressing human TRH-DE; 10 μM TRH substrate; room temperature, 2 hours; 16-point concentration test
Description: The compounds described in “1. […] The enzyme inhibitory activity of each of the compounds was evaluated by measuring the amount of the product Cyclo (His-Pro) of the enzyme reaction using a RapidFire RF 365 HTMS system (manufactured by Agilent Technologies, Inc.) connected to a triple quadrupole mass spectrometer (API 4000, manufactured by SCIEX). A membrane fraction prepared from Expi 293 cells transiently expressing human TRH-DE was used as an enzyme. The membrane fraction was suspended in 4 μg/ml of a reaction buffer (50 mM sodium phosphate (pH 7.4), 25 mM NaCl, 0.01% Triton […], and 200 μM bacitracin) and mixed with the test compound at each concentration. 10 μM […]), which was a substrate, was added, and the mixture was reacted at room temperature for 2 hours. The reaction was stopped in the same amount of a solution of acetonitrile:methanol (1:1) containing 1 μM of the stable isotope Cyclo ([…]) as an internal standard, and the supernatant was collected after centrifugation. In the RapidFire RF 365 HTMS system, a portion of the supernatant was aspirated, loaded onto a Graphic Carbon column (manufactured by Agilent Technologies, Inc.) with a buffer A (water, 0.09% formic acid, 0.01% trifluoroacetic acid) and washed with ultrapure water. Next, washing was performed with acetonitrile. The contents in the column were eluted with a buffer B (80% acetonitrile, 0.09% formic acid, 0.01% trifluoroacetic acid) and injected into a mass spectrometer for analysis. […] The ESI voltage was set to 5,500 V and the temperature was set to 650° C. For the calculation of the inhibition rate, a Ratio value corrected by dividing the product amount by the internal standard amount was used. The inhibition rate (%) was calculated by % Inhibition={1-(Ratio value of sample-Ratio value of blank)/(Ratio value of control-Ratio value of blank)}×100. The IC50 value was calculated from the concentration reactivity test at 16 points.

Compound	IC50
C[C@@H]1COc2ncc(Br)cc2C(=O)N1C1CC2(C1)CN(S(=O)(=O)c1ccccc1F)C2 [Example 171]	7 nM
C[C@@H]1COc2nc(N3CCOC(C(F)(F)F)C3)ncc2C(=O)N1C1CC2(C1)CN(S(=O)(=O)c1ccccc1F)C2 (mixture of isomers) [Example 385]	13 nM
CC1CCN(c2cc3c(cn2)C(=O)N(C2CC4(C2)CN(S(=O)(=O)c2ccccc2F)C4)[C@H](C)CO3)CC1 [Example 153]	1 nM
C[C@@H]1Cn2c(nnc2C2CC2)C(=O)N1C1CC2(C1)CN(S(=O)(=O)c1ccccc1F)C2 [Example 265]	287 nM
CC1C=Cc2ncc(C(F)(F)F)cc2C(=O)N1C1CC2(C1)CN(S(=O)(=O)c1ccccc1F)C2 (racemic) [Example 115]	83 nM
CCCN(C(=O)c1cccnc1OC)C1CC2(C1)CN(S(=O)(=O)c1cccs1)C2 [Example 415]	847 nM
Cc1ccc(F)c(S(=O)(=O)N2CC3(CC(N4C(=O)c5cccnc5OCC4C)C3)C2)c1 (stereo not shown) [Example 70, 4-[2-(2-fluoro-5-methyl-phenyl)sulfonyl-2-azaspiro[3.3]heptan-6-yl]-3-methyl-2,3-dihydropyrido[3,2-f][1,4]oxazepin-5-one]	25 nM
Cc1onc2c1CC[C@@H](C)N(C1CC3(C1)CN(S(=O)(=O)c1ccccc1F)C3)C2=O [Example 103]	10 nM
C[C@@H]1COc2nc(N3CCOCC3)ncc2C(=O)N1C1CC2(C1)CN(S(=O)(=O)c1ccccc1F)C2 [Example 383]	11 nM
C[C@@H]1COc2c(noc2C2CC2)C(=O)N1C1CC2(C1)CN(S(=O)(=O)c1ccccc1F)C2 [Example 325]	17 nM
CC1(O)c2ccc(F)cc2C(=O)N1C1CC2(C1)CN(S(=O)(=O)c1ccccc1F)C2 (racemic) [Example 277]	102 nM
C[C@@H]1CCc2nc(C3(F)CC3)sc2C(=O)N1C1CC2(C1)CN(S(=O)(=O)c1ccccc1F)C2 [Example 109, (6R)-2-(1-fluorocyclopropyl)-5-[2-(2-fluorophenyl)sulfonyl-2-azaspiro[3.3]heptan-6-yl]-6-methyl-7,8-dihydro-6H-thiazolo[5,4-c]azepin-4-one]	3 nM
C[C@@H]1COc2conc2C(=O)N1C1CC2(C1)CN(S(=O)(=O)c1ccccc1F)C2 [Example 217]	35 nM
CC1COc2ccnc(F)c2C(=O)N1C1CC2(C1)CN(S(=O)(=O)c1ccccc1F)C2 (racemic) [Example 20]	17 nM
C[C@@H]1CCn2ncc(Cl)c2C(=O)N1C1CC2(C1)CN(S(=O)(=O)c1ccccc1F)C2 [Example 194]	36 nM
C[C@@H]1COc2c(c(C3CC3)nn2C2CC2)C(=O)N1C1CC2(C1)CN(S(=O)(=O)c1ccccc1F)C2 [Example 208]	14 nM
Cc1nn(C2CC3(C2)CN(S(=O)(=O)c2ccccc2F)C3)c(=O)c2ccccc12 [Example 242]	655 nM
C[C@@H]1COc2nc(C3CC3)ccc2C(=O)N1C1CC2(C1)CN(S(=O)(=O)c1ccccc1[N+](=O)[O-])C2 [Example 55]	54 nM
C[C@@H]1COc2nc([C@@H]3C[C@H]3F)sc2C(=O)N1C1CC2(C1)CN(S(=O)(=O)c1ccccc1F)C2 [Example 235, (6R)-2-[(1R,2R)-2-fluorocyclopropyl]-7-[2-(2-fluorophenyl)sulfonyl-2-azaspiro[3.3]heptan-6-yl]-6-methyl-5,6-dihydrothiazolo[5,4-f][1,4]oxazepin-8-one]	3 nM
C[C@@H]1COc2nc(C3CC3)ccc2C(=O)N1C1CC2(C1)CN(S(=O)(=O)c1ccccc1F)C2 [Example 316]	2 nM
C[C@@H]1COc2c(cnn2-c2ccccc2)C(=O)N1C1CC2(C1)CN(S(=O)(=O)c1ccccc1F)C2 [Example 204]	34 nM
C[C@@H]1CCc2nc(C3(C(F)(F)F)CC3)sc2C(=O)N1C1CC2(C1)CN(S(=O)(=O)c1ccccc1F)C2 [Example 97]	3 nM

Compound	IC50
Cc1nn(C2CC2)c2c1C(=O)N(C1CC3(C1)CN(S(=O)(=O)c1ccccc1F)C3)[C@H](C)CO2 [Example 207]	11 nM
CCCN(C(=O)c1cccnc1OC)C1CC2(C1)CN(S(=O)(=O)c1cccc(C)c1F)C2 [Example 420]	701 nM
Cc1onc2c1C(=O)N(C1CC3(C1)CN(S(=O)(=O)c1ccccc1F)C3)[C@H](C)CO2 [Example 218]	37 nM
C[C@@H]1CCN(C(=O)c2ccc3ccccc3c2)CC(=O)N1C1CC2(C1)CN(S(=O)(=O)c1ccccc1F)C2 [Example 451]	76 nM
CC1c2ccccc2C(=O)N1C1CC2(C1)CN(S(=O)(=O)c1ccccc1)C2 (racemic) [Example 267]	664 nM
CC1CCc2ncc(C(F)(F)F)cc2C(=O)N1C1CC2(C1)CN(S(=O)(=O)c1ccccc1F)C2 (racemic) [Example 89]	286 nM
CC1c2ccccc2CCC(=O)N1C1CC2(C1)CN(S(=O)(=O)c1ccccc1F)C2 (racemic) [Example 45, 2-[2-(2-fluorophenyl)sulfonyl-2-azaspiro[3,3]heptan-6-yl]-1-methyl-4,5-dihydro-1H-2-benzazepin-3-one]	214 nM
C[C@@H]1COc2nc(N3C[C@H]4CC[C@@H](C3)O4)ncc2C(=O)N1C1CC2(C1)CN(S(=O)(=O)c1ccccc1F)C2 [Example 412]	16 nM
C[C@@H]1COc2noc(C(C)(C)C)c2C(=O)N1C1CC2(C1)CN(S(=O)(=O)c1ccccc1F)C2 [Example 219]	38 nM
CC1CCc2ncccc2C(=O)N1C1CC2(C1)CN(S(=O)(=O)c1ccccc1F)C2 (racemic) [Example 87]	49 nM
O=C1c2cccnc2OCC2(CC2)N1C1CC2(C1)CN(S(=O)(=O)c1ccccc1F)C2 [Example 61]	653 nM
CCCN(C(=O)c1cccnc1OC)C1CC2(C1)CN(S(=O)(=O)c1cccc(-c3ccccc3)c1)C2 [Example 419]	685 nM
CCCN(C(=O)c1cccnc1OC)C1CC2(C1)CN(S(=O)(=O)c1sccc1C)C2 [Example 417]	690 nM
Cc1cnc2c(c1)OCC(C)N(C1CC3(C1)CN(S(=O)(=O)c1ccccc1F)C3)C2=O (racemic) [Example 15]	7 nM
C[C@@H]1COc2nc(C(F)(F)F)ncc2C(=O)N1C1CC2(C1)CN(S(=O)(=O)c1ccccc1F)C2 [Example 44]	14 nM
C[C@@H]1COc2nc([C@H]3C[C@@H]3F)sc2C(=O)N1C1CC2(C1)CN(S(=O)(=O)c1ccccc1F)C2 [Example 237, (6R)-2-[(1S,2S)-2-fluorocyclopropyl]-7-[2-(2-fluorophenyl)sulfonyl-2-azaspiro[3.3]heptan-6-yl]-6-methyl-5,6-dihydrothiazolo[5,4-f][1,4]oxazepin-8-one]	3 nM
CCC1c2ccccc2C(=O)N1C1CC2(C1)CN(S(=O)(=O)c1cc(OC)ccc1F)C2 (racemic) [Example 274]	151 nM
CCCN(C(=O)c1ccnc2[nH]ccc12)C1CC2(C1)CN(S(=O)(=O)c1cc(C)ccc1F)C2 [Example 428]	14 nM
C[C@@H]1Cn2ncc(Cl)c2C(=O)N1C1CC2(C1)CN(S(=O)(=O)c1ccccc1F)C2 [Example 229]	33 nM
C[C@@H]1COc2nc(N3[C@@H]4COC[C@H]3C4)ncc2C(=O)N1C1CC2(C1)CN(S(=O)(=O)c1ccccc1F)C2 [Example 392]	3 nM
C[C@@H]1CCCCN1c1cc2c(cn1)C(=O)N(C1CC3(C1)CN(S(=O)(=O)c1ccccc1F)C3)[C@H](C)CO2 [Example 151]	1 nM
